This is an account of results in PubChem BioAssay (NCI).

Assay in all cases: inhibition of tumour cell growth, NCI panel, 48 h
The subject of test [1] is HCT-116 colon.
Test [2] relates to HS 578T breast.
Test [3] deals with RXF 393 renal.
Test [4] deals with A498 renal.
The test system of test [5] is UACC-62 melanoma.
Test [6] concerns HOP-92 NSCLC.
The test system of test [7] is SK-MEL-2 melanoma.
For test [8], the system named is SF-268 CNS.
Test [9] concerns DMS 114 small cell lung.
The subject of test [10] is DLD-1 colon.
For test [11], the system named is XF 498 CNS.

Structures are written as SMILES. Values joined by “and” are separate entries in the source; they are usually repeats but may differ in a detail not shown here. Equal entries are not always repeated.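 Following 48 hours of exposure in 96-well plates, responses at five concentrations were used to interpolate endpoints linearly. Here, GI50 denotes the concentration required for 50% inhibition of growth. TGI: total growth inhibition.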

Regarding `COC(=O)c1c(C)nc(C)c2c1C(=O)C(Br)=C(NCc1ccccc1)C2=O`, the GI50 in test [1] was 2.5 µM; in test [2], 10.8 µM; in test [3] it was 3.08 µM; in test [4] it was 4.48 µM; in test [5], 1.41 µM; in [6] it was 2.46 µM. Also, the GI50 in [7] was 2.52 µM; in test [8] it was 3.46 µM. Moreover, the TGI was 7.22 µM in test [1]; more than 100 µM in [2]; 9.69 µM in [3]; 17.3 µM in test [4]; 2.93 µM in [5]; 5.78 µM in test [6]. Besides, the TGI was 6.63 µM in test [7] and 13.5 µM in test [8].
With `CC1(C)N=C(N)N=C(N)N1c1ccc(CCCC(=O)Nc2ccc(S(=O)(=O)F)cc2)cc1`, the GI50 in [1] was 3.69 µM; in test [2] it was more than 100 µM; in test [3], 4.22 µM; in test [4] it was 37.5 µM; in test [5] it was 2.24 µM; in [6], 10.7 µM. For the same compound, the GI50 in [7] is 46.2 µM; in [8], 6.59 µM. For the same compound, the TGI in test [1], in test [2], in [3], in test [4], in test [5] and in [6] was more than 100 µM in each case. Also, the TGI in [7] and in test [8] was more than 100 µM throughout.
As to `COc1cc2ncn(-c3cc(OCc4ccccc4C(F)(F)F)c(C(N)=O)s3)c2cc1OC`, the GI50 is 0.246 µM in test [1]; 0.576 µM in [2]; 0.102 µM in test [3]; 0.186 µM in [4]; 0.168 µM in test [5]; 2.2 µM in test [6]. Also, the figures for the GI50 in test [7] and in test [8] were 0.207 µM and 0.225 µM, respectively. Further, the TGI is more than 25 µM in test [1]; more than 8.59 µM in test [2]; 4.02 µM in [3]; 5.2 µM in test [4]; more than 8.39 µM in [5]; 10.5 µM in [6]. Further, the figures for the TGI in test [7] and in test [8] were 12.3 µM and more than 25 µM, respectively.
For the compound `COc1cc2c(c(OC)c1OC)-c1cc(I)c(O)cc1[C@@H](NC(C)=O)CC2`, the GI50 in test [1] is 0.0409 µM; in [2] it was 0.029 µM; in test [3], 0.0496 µM; in test [4], 0.0459 µM; in [5], 0.0448 µM; in test [6], 0.0639 µM. Also, the figures for the GI50 in [7] and in test [8] were 23.1 µM and 0.0666 µM, respectively. In addition, the TGI in [1] is 19.4 µM; in [3] it was more than 100 µM; in test [4] it was 5.5 µM; in test [5], more than 100 µM; in test [6] it was 10.9 µM; in test [7] it was more than 100 µM. The TGI in test [8] turned out to be 41.1 µM.
Turning to `CC(=O)CCC1(c2ccccc2)OC(=O)C(C#N)=C1c1ccccc1` (centres undefined), the TGI in test [1], in test [4], in [5], in test [6], in test [9] and in test [7] was more than 100 µM each time. Moreover, the TGI in test [10], in [11] and in test [8] was more than 100 µM each time.
As to `CCCN1C(=O)/C(=C/c2ccc(SC(F)(F)F)cc2)SC1=Nc1ccc(OC)cc1`, the GI50 in test [1] was 6.29 µM; in test [2], 14 µM; in test [3], 5.35 µM; in [4] it was 11 µM; in test [5] it was 10 µM; in test [6], 6.6 µM. Moreover, the GI50 in test [7] was 36.5 µM; in test [8], 11.3 µM. Besides, the TGI in [1] is 17.5 µM; in test [2], 33.4 µM; in [3], 16.9 µM; in test [4], 21.9 µM; in [5] it was 25.4 µM; in test [6] it was 19.8 µM. The TGI was more than 50 µM in test [7] and 43.9 µM in test [8].
As for `NNc1c(C(N)=O)c2c(N)ncnc2n1C1OC(CO)C(O)C1O` (centres undefined), the GI50 in test [1] was less than 0.01 µM; in test [2] it was 0.056 µM and 0.107 µM; in test [3], 0.0254 µM and < 0.0143 µM; in test [4], 0.0445 µM and 0.161 µM; in test [5], 0.0269 µM and 0.0409 µM; in test [6], 0.0285 µM and 0.0507 µM. For the same compound, the GI50 was 0.0273 µM and 0.0256 µM in [7]; 0.0451 µM and 0.0928 µM in [8]. In addition, the TGI was 0.826 µM and 2.38 µM in test [2]; 0.186 µM and 0.125 µM in test [3]; 0.485 µM and 1.26 µM in [4]; 0.124 µM and 0.168 µM in test [5]; 0.347 µM and 0.333 µM in test [6]; 0.0946 µM and 0.307 µM in test [7]. The TGI in test [8] was 1.05 µM and 1.22 µM.
`Cc1ccc(NCCNCC(C)(C)O)c2c(=O)c3ccc(Cl)cc3sc12`: the GI50 in test [1] is 1.3 µM; in [2], 1.59 µM; in [3] it was 1.26 µM; in [4] it was 1.63 µM; in [5] it was 1.81 µM; in test [6], 0.455 µM. Besides, the values for the GI50 in test [7] and in [8] were 1.59 µM and 1.52 µM, respectively. In addition, the TGI in test [1] worked out at 2.66 µM; in test [2] it was 3.84 µM; in [3], 2.61 µM; in test [4], 3.09 µM; in test [5], 3.42 µM; in [6], 1.92 µM. The TGI in test [7] was determined as 3.28 µM; in test [8], 3.22 µM.
Consider `CC(C)c1ccc(O)c(Cc2cc(C(C)C)cc(Cc3cc(C(C)C)ccc3O)c2O)c1`, for which the TGI in [1] worked out at 3.19 µM; in test [4], 2.82 µM; in [5], 8.48 µM; in test [6], 3.33 µM; in test [9], 3.03 µM; in test [7] it was 3.06 µM. For the same compound, the TGI in [10] is 4.15 µM; in test [11], 2.73 µM; in test [8], 4.01 µM.
Turning to `S=c1ssnc1-c1cc2ccccc2o1`, the GI50 in [1] is 9.3 µM; in test [2] it was 18.5 µM; in test [3], 7.78 µM; in test [4], 20 µM; in test [5] it was 15.5 µM; in test [6] it was 18.5 µM. For the same compound, the GI50 in test [7] is 13.8 µM; in test [8] it was 13.9 µM. Further, the TGI in test [1] amounted to 36.8 µM; in [2], 80.7 µM; in test [3] it was 23.3 µM; in test [4] it was 38.8 µM; in [5], 29.4 µM; in test [6], 43.2 µM. For the same compound, the figures for the TGI in [7] and in test [8] were 28.3 µM and 35 µM, respectively.
